Assays:
vitamin D receptor (VDR) = target: T1, vitamin D receptor (VDR) (Bos taurus, UniProt Q28037); assay: Binding assay for calf thymus vitamin D receptor (VDR); conditions: relative to 1α,25-dihydroxyvitamin D3 = 1; ratio of concentrations for 50% inhibition of [3H]-1α,25-dihydroxyvitamin D3 binding to calf thymus VDR
T1 construct: vitamin D receptor (VDR) derived from calf thymus was evaluated; purchased Yamasa Shoyu Co., Ltd. (Choshi, Chiba, Japan) Lot; No. 111931; host or cells: calf thymus (tissue preparation)
T1 sequence (Q28037 1-426): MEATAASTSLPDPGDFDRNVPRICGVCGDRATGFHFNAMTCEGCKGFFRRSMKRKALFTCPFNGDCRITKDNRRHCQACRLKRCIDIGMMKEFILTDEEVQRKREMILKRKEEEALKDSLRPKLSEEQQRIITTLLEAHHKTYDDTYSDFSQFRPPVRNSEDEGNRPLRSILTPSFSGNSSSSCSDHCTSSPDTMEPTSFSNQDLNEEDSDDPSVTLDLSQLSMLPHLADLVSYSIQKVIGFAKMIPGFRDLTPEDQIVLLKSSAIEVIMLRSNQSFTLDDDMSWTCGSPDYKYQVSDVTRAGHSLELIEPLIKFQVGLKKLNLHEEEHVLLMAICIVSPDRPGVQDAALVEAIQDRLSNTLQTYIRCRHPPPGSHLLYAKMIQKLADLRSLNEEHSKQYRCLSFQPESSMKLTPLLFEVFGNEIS
Experimental: Binding Assay for Calf Thymus Vitamin D Receptor (VDR)
The binding ability of the compounds of the present inventions described in the above Examples to vitamin D receptor (VDR) derived from calf thymus was evaluated.
The binding assay was carried out according to the manufacturer's instruction of Yamasa Shoyu Co., Ltd. as follows.
An EtOH solution (sample) containing an increasing amount of each 1α,25-dihydroxyvitamin D3 (as a standard reference material), and Compounds YI-1a, YI-1b, YI-2a, YI-3a, YI-3b, YI-4a, YI-4b, YI-5a, YI-5b, 20-Epi-YI-1a, 20-Epi-YI-1b, 20-Epi-YI-2a, 20-Epi-YI-3a, 20-Epi-YI-4a, 20-Epi-YI-4b, 20-Epi-YI-5a, 20-Epi-YI-5b, 20-Epi-YI-6a, 20-Epi-YI-6b, 20-Epi-YI-7a, 20-Epi-YI-7b, 20-Epi-YI-8a, and 20-Epi-YI-8b was prepared, that is, dilution series were prepared wherein final concentrations of each compounds in a mixture, which is prepared by following step, of receptor solutions, samples, and [^3H]-1α,25-dihydroxyvitamin D3 solutions are 100 nM, 30 nM 10 nM, 1 nM, 300 pM, 100 pM, 30 pM, 10 pM, 3 pM, and 1 pM.
Freeze-dried calf thymus vitamin D receptors (Lot. No. 111931) were purchased from Yamasa Shoyu Co., Ltd. (Choshi, Chiba, Japan) and were dissolved in 45 mL of phosphate buffer (0.3 M KCl, 0.05 M K2HPO4—KH2PO4, pH 7.4) just before use to use as a receptor solution.
50 μL of sample of Compounds YI-1a, YI-1b, YI-2a, YI-3a, YI-3b, YI-4a, YI-4b, YI-5a, YI-5b, 20-Epi-YI-1a, 20-Epi-YI-1b, 20-Epi-YI-2a, 20-Epi-YI-3a, 20-Epi-YI-4a, 20-Epi-YI-4b, 20-Epi-YI-5a, 20-Epi-YI-5b, 20-Epi-YI-6a, 20-Epi-YI-6b, 20-Epi-YI-7a, 20-EPi-YI-7b, 20-Epi-YI-8a, 20-Epi-YI-8b, or 1α,25-dihydroxyvitamin D3 and 500 μL of the receptor solution were pipetted into glass culture tubes. The mixture was vortexed 2-3 times, and incubated for 1 h at room temperature. To each tubes, [^3H]-1α,25-dihydroxyvitamin D3 (ca. 10000 dpm) in 50 μL of EtOH was added, the mixture was vortexed 2-3 times, and the whole mixture was incubated for 18 h at 4° C. (in a refrigerator). Then, 200 μL of DCC (dextran-coated charcoal; purchased from Yamasa Shoyu) was added to each tubes, and allowed to stand for 30 min at 4° C. Bound and free [^3]-1α,25-dihydroxyvitamin D3 were separated by centrifugation at 3000 rpm for 15 min at 4° C. Aliquots (500 μL) of the supernatant were put into vial bottles from each tube, and were mixed with 10 mL of ACS-II fluid scintillator (Amersham, Buckinghamshire, U.K.) and submitted for radioactivity counting.
The relative binding affinity of the vitamin D derivatives of the present inventions to VDR was calculated regarding binding affinity of 1α,25-dihydroxyvitamin D3 to VDR as 1. The following equation was used to calculate the relative VDR binding affinity: X=y/x
X: the relative binding affinity of the compound of the present inventions to VDR
y: the concentration of 1α,25-dihydroxyvitamin D3 required for 50% inhibition of binding [^3H]-1α,25-dihydroxyvitamin D3 to VDR
x: the concentration of the compound of the present inventions required for 50% inhibition of binding [^3H]-1α,25-dihydroxyvitamin D3 to VDR

cellular differentiation = conditions: compared with 1,25-(OH)2D3; cited from earlier work

Row | Structure (SMILES) | VDR affinity (relative binding affinity X=y/x) (vitamin D receptor (VDR)) | cellular effects (cellular differentiation)
1 | C[C@@H](CCCC(C)(C)O)C1CCC2/C(=C/C=C3C[C@@H](O)C(OCCO)[C@H](O)C3)CCCC21C (single isomer, unassigned) [Compound 20-Epi-YI-6a] | 1 | –
2 | C[C@@H](CCCC(C)(C)O)C1CCC2/C(=C/C=C3C[C@@H](O)C(OCCO)[C@H](O)C3)CCCC21C (single isomer, unassigned) [Compound 20-Epi-YI-6b] | 5 | –
3 | C[C@H](CCCC(C)(C)O)[C@H]1CC[C@H]2/C(=C/C=C3C[C@@H](O)C[C@H](O)C3)CCC[C@]12C [19-nor-1,25-(OH)2D3, 19-nor-1α,25-dihydroxyvitamin D3] | – | equivalent to 1,25-(OH)2D3
4 | C[C@@H](CCCC(C)(C)O)C1CCC2/C(=C/C=C3C[C@@H](O)C4(CO4)[C@H](O)C3)CCCC21C (stereo partly drawn) [Compound 20-Epi-YI-1a, (20S)-1α,25-dihydroxy-2β,2′-epoxy-19-norvitamin D3] | 1/2 | –
5 | C[C@@H](CCCC(C)(C)O)C1CCC2/C(=C/C=C3C[C@@H](O)C(C)(O)[C@H](O)C3)CCCC21C (stereo partly drawn) [Compound 20-Epi-YI-3a, (20S)-1α,2β,25-trihydroxy-2α-methyl-19-norvitamin D3] | 1 | –
6 | COCC1(O)[C@H](O)CC(=C/C=C2\CCCC3(C)C2CCC3[C@@H](C)CCCC(C)(C)O)C[C@H]1O (stereo partly drawn) [Compound 20-Epi-YI-5a, (20S)-1α,2β,25-trihydroxy-2α-methoxymethyl-19-norvitamin D3] | 1/5 | –
7 | COCC1(O)[C@H](O)CC(=C/C=C2\CCCC3(C)C2CCC3[C@@H](C)CCCC(C)(C)O)C[C@H]1O (stereo partly drawn) [Compound 20-Epi-YI-5b, (20S)-1α,2α,25-trihydroxy-2β-methoxymethyl-19-norvitamin D3] | 1/10 | –
8 | C[C@H](CCCC(C)(C)O)C1CCC2/C(=C/C=C3C[C@@H](O)C4(CO4)[C@H](O)C3)CCCC21C (stereo partly drawn) [YI-1b, 1α,25-dihydroxy-2α,2′-epoxy-19-norvitamin D3] | 1/290 | –
9 | C[C@H](CCCC(C)(C)O)C1CCC2/C(=C/C=C3C[C@@H](O)C(O)(CF)[C@H](O)C3)CCCC21C (stereo partly drawn) [YI-2a, 1α,2β,25-trihydroxy-2α-fluoromethyl-19-norvitamin D3] | 1/43 | –
10 | CCC1(O)[C@H](O)CC(=C/C=C2\CCCC3(C)C2CCC3[C@H](C)CCCC(C)(C)O)C[C@H]1O (stereo partly drawn) [YI-4a, 1α,2β,25-trihydroxy-2α-ethyl-19-norvitamin D3] | 1/50 | –
11 | CCC1(O)[C@H](O)CC(=C/C=C2\CCCC3(C)C2CCC3[C@H](C)CCCC(C)(C)O)C[C@H]1O (stereo partly drawn) [YI-4b, 1α,2α,25-trihydroxy-2β-ethyl-19-norvitamin D3] | 1/2000 | –

Further lines, with some results ahead:

Row | VDR affinity (relative binding affinity X=y/x) (vitamin D receptor (VDR)) | Structure (SMILES) | cellular effects (cellular differentiation)
12 | 1/5 | C[C@@H](CCCC(C)(C)O)C1CCC2/C(=C/C=C3C[C@@H](O)C4(CO4)[C@H](O)C3)CCCC21C (stereo partly drawn) [Compound 20-Epi-YI-1b, (20S)-1α,25-dihydroxy-2α,2′-epoxy-19-norvitamin D3] | –
13 | 2 | C[C@@H](CCCC(C)(C)O)C1CCC2/C(=C/C=C3C[C@@H](O)C(O)(CF)[C@H](O)C3)CCCC21C (stereo partly drawn) [Compound 20-Epi-YI-2a, (20S)-1α,2β,25-trihydroxy-2α-fluoromethyl-19-norvitamin D3] | –
14 | 1/20 | CCC1(O)[C@H](O)CC(=C/C=C2\CCCC3(C)C2CCC3[C@@H](C)CCCC(C)(C)O)C[C@H]1O (stereo partly drawn) [Compound 20-Epi-YI-4a, (20S)-1α,2β,25-trihydroxy-2α-ethyl-19-norvitamin D3] | –
15 | 1/1000 | CCC1(O)[C@H](O)CC(=C/C=C2\CCCC3(C)C2CCC3[C@@H](C)CCCC(C)(C)O)C[C@H]1O (stereo partly drawn) [Compound 20-Epi-YI-4b, (20S)-1α,2α,25-trihydroxy-2β-ethyl-19-norvitamin D3] | –
16 | 1 | C[C@@H](CCCC(C)(C)O)C1CCC2/C(=C/C=C3C[C@@H](O)C(CCO)[C@H](O)C3)CCCC21C (stereo partly drawn) [Compound 20-Epi-YI-7a] | –
17 | 1/5 | C[C@@H](CCCC(C)(C)O)C1CCC2/C(=C/C=C3C[C@@H](O)C(CCO)[C@H](O)C3)CCCC21C (stereo partly drawn) [Compound 20-Epi-YI-7b] | –
18 | 1.6 | C[C@@H](CCCC(C)(C)O)C1CCC2/C(=C/C=C3C[C@@H](O)C(=CCO)[C@H](O)C3)CCCC21C (stereo partly drawn) [Compound 20-Epi-YI-8a] | –
19 | 1/50 | C[C@@H](CCCC(C)(C)O)C1CCC2/C(=C/C=C3C[C@@H](O)C(=CCO)[C@H](O)C3)CCCC21C (stereo partly drawn) [Compound 20-Epi-YI-8b, (20S)-1α,25-dihydroxy-2-[2-(hydroxyl)-ethylidene]-19-norvitamin D3] | –
20 | 1/23 | C[C@H](CCCC(C)(C)O)C1CCC2/C(=C/C=C3C[C@@H](O)C4(CO4)[C@H](O)C3)CCCC21C (stereo partly drawn) [YI-1a, 1α,25-dihydroxy-2β,2′-epoxy-19-norvitamin D3] | –
21 | 1/3 | C[C@H](CCCC(C)(C)O)C1CCC2/C(=C/C=C3C[C@@H](O)C(C)(O)[C@H](O)C3)CCCC21C (stereo partly drawn) [YI-3a, 1α,2β,25-trihydroxy-2α-methyl-19-norvitamin D3] | –
22 | 1/730 | C[C@H](CCCC(C)(C)O)C1CCC2/C(=C/C=C3C[C@@H](O)C(C)(O)[C@H](O)C3)CCCC21C (stereo partly drawn) [YI-3b, 1α,2α,25-trihydroxy-2β-methyl-19-norvitamin D3] | –
23 | 1/26 | COCC1(O)[C@H](O)CC(=C/C=C2\CCCC3(C)C2CCC3[C@H](C)CCCC(C)(C)O)C[C@H]1O (stereo partly drawn) [YI-5a, 1α,2β,25-trihydroxy-2α-methoxymethyl-19-norvitamin D3] | –
24 | 1/820 | COCC1(O)[C@H](O)CC(=C/C=C2\CCCC3(C)C2CCC3[C@H](C)CCCC(C)(C)O)C[C@H]1O (stereo partly drawn) [YI-5b, 1α,2α,25-trihydroxy-2β-methoxymethyl-19-norvitamin D3] | –
